Data from PubChem BioAssay (NCI).
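These data come from cells grown in 96-well plates and exposed to compound for 48 hours at five concentrations. GI50 is the concentration that inhibits growth by half. TGI is the concentration that stops growth completely.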

How the values were obtained:
Test in all cases: NCI-60 cell line screen, 48 h
[1] = system: MDA-MB-231 breast
[2] = system: OVCAR-8 ovarian
[3] = system: HOP-92 NSCLC
[4] = system: SF-295 CNS
[5] = system: SN12C renal
[6] = system: NCI/ADR-RES ovarian
[7] = system: UO-31 renal
[8] = system: UACC-257 melanoma
[9] = system: PC-3 prostate
[10] = system: OVCAR-4 ovarian

Row | Structure (SMILES) | GI50 [1] [µM] | TGI [1] [µM] | GI50 [2] [µM] | TGI [2] [µM] | GI50 [3] [µM] | TGI [3] [µM] | GI50 [4] [µM] | TGI [4] [µM] | GI50 [5] [µM] | TGI [5] [µM] | GI50 [6] [µM] | TGI [6] [µM] | GI50 [7] [µM] | TGI [7] [µM] | GI50 [8] [µM] | TGI [8] [µM] | GI50 [9] [µM] | TGI [9] [µM] | GI50 [10] [µM] | TGI [10] [µM]
1 | O=C(Cc1ccc(Nc2ccnc(C(F)(F)F)c2)cc1)N/N=C/c1ccccc1O | 2.55 | > 74.9 | 3.15 | > 69.4 | 1.97 | 21 | 2.72 | 38 | 2.9 | > 58.6 | 2.83 | 33 | 1.52 | > 26 | 3.18 | > 28.7 | 1.09 | 16.6 | 3.29 | > 100
2 | O=[N+]([O-])/C=C/c1cc2ccc3ccccc3c2[nH]1 | – | 3.2 | – | > 21 | – | 3.64 | – | 5.86 | – | 3.81 | – | 6.87 | – | 3.05 | – | 6.45 | – | 3 | – | 4.95
3 | O=C(O)c1ccc(C(=O)O)c(C(=O)O)c1.[NH-]C1CCCCC1[NH-].[Pt+2] | 16.7 | > 73.6 | 2.92 | 60.8 | 14.8 | 53.9 | 5.52 | 68.6 | 3.19 | 66.8 | 3.56 | 60.5 | 4.22 | 26.5 | 15.4 | 61.6 | 4.94 | 59.5 | 7.73 | 50.2
4 | Oc1ccc(Cc2ccc(O)c(C3CC(c4ccc(Cl)cc4)=NN3)c2)cc1C1CC(c2ccc(Cl)cc2)=NN1 (centres undefined) | 2.49 | 8.94 | 2.87 | > 42.4 | 3.39 | 20.9 | 2.39 | > 42.9 | 2.79 | > 37.3 | 2.54 | > 34.5 | 3.07 | > 100 | 3.1 | 19.2 | 3.67 | > 100 | 2.97 | > 44.6
5 | Cn1c(=O)c2[nH]c(CCCc3ccc([N+](=O)[O-])cc3)nc2n(C)c1=O | – | > 100 | – | > 100 | – | > 100 | – | > 100 | – | > 100 | – | > 100 | – | > 100 | – | > 100 | – | > 100 | – | > 100
6 | C/C(=N/NC(=S)N1CC2CCC(CC2)C1)c1cnccn1 | – | 16.8 | – | 11.8 | – | 12.7 | – | 12.1 | – | 14.4 | – | 0.054 | – | 2.02 | – | 14.3 | – | 8.46 | – | 5.59
7 | NCCCNc1nc2ccc(Cl)cc2c2c(=O)c3cc(F)ccc3sc12 | 1.78 | 4.09 | 3.24 | 15.1 | 1.58 | 6.51 | 12 | 26.5 | 2.27 | 6.08 | 2.23 | 5.62 | 3.35 | 16.1 | 15.7 | 35.3 | 3.43 | 14.2 | 4.3 | 18
8 | c1ccc(-c2cn(-c3ccccc3)c(-c3ccccc3)n2)cc1 | 18.4 | 36.5 | 7.89 | 20.4 | 20.1 | 50.4 | 12.9 | 28.4 | 15.4 | 30.6 | 19.6 | 44.9 | 11 | 22.9 | 13.4 | 26.1 | 17.1 | 45.6 | 16.4 | 31
9 | CCC(C)CC(C)C(=O)c1c(O)ccn(O)c1=O (centres undefined) | 1.04 | > 100 | 0.626 | > 100 | 0.686 | 33.7 | 5.22 | 49.6 | 1.38 | 16.2 | 0.395 | 5.15 | 0.376 | 4.31 | 2.52 | 8.38 | 1.33 | > 100 | 0.561 | > 100
10 | COc1cc2c3c(n(CCCN4CCCNCC4)c(=O)c2cc1OC)-c1cc2c(cc1C3=O)OCO2 | 1.06 | 3.5 | 0.466 | 4.22 | 0.135 | 0.471 | 0.2 | 2.66 | 0.239 | 1.28 | 0.493 | 6.69 | 1.33 | 12.9 | 5.85 | 15.9 | 1.33 | 9.97 | 2.91 | 11.1
11 | O=C(O)c1ccc(Oc2nc3ccccc3s2)cc1 | – | > 100 | – | > 100 | – | > 100 | – | > 100 | – | > 100 | – | > 100 | – | > 100 | – | > 100 | – | > 100 | – | > 100
12 | CCN1C(=O)N(CC)C2C1NC(=S)N2/N=C/C=C/c1ccccc1OC (centres undefined) | 0.0413 | – | 0.0378 | > 100 | 0.0269 | 27.1 | 0.0306 | > 100 | 0.0494 | > 100 | 0.0311 | > 100 | 0.0879 | > 87.5 | > 100 | > 100 | 0.0411 | > 100 | 0.125 | > 100
13 | NC(=N\N=C/c1ccc(Cl)cc1Cl)/C(N)=N\N=C/c1ccc(Cl)cc1Cl | 17.1 | > 100 | 20.7 | > 100 | 6.54 | 56.1 | 2.84 | 89.8 | 30.7 | > 100 | 38.7 | > 100 | 13.3 | > 83.6 | > 100 | > 100 | > 100 | > 100 | 0.34 | 1.65
14 | CCCCCCc1cc2cc(-c3csc(/C=C/c4ccccc4)n3)c(=O)oc2cc1O | 8.82 | 31.1 | 2.79 | 9.55 | 4.32 | 17.7 | 13.1 | 27.2 | 2.12 | 4.43 | 4.53 | 17.7 | 15.7 | > 100 | 40.4 | > 100 | 5.39 | 34.4 | 3.56 | 13.7
